Reference: patent US20080299131A1, “Anti-Viral Compositions” (priority 2004, published 2008)
“Also recorded” adds a separate entry of the source.

Assays:
EEV [1] = format: cell-based, Vaccinia virus strain WR
[2] = Tolerability of polyanions administered to mice; details: for adverse effects after intraperitoneal injection: unpublished data; for weight loss or illness after intranasal administration: up to 2 mg/mouse intranasally
[3] = tested on: VACV harvested from supernatant of infected cells (predominantly EEV); format: cell-based, Vaccinia virus strain WR
[4] = tested on: VACV strain WR-induced actin tails; format: cell-based, Vaccinia virus strain WR
VACV strain WR [5] = format: in vivo, mice; details: 2 mg polyanion intranasally 2 days post-infection; for benefit with polyanion in mice that received human IgG: Hu anti-VV Ab 500 μg; for weight loss after infection, polyanion alone: non-immune IgG, 1×10^4 pfu
VACV strain WR [6] = format: in vivo, mice; details: 3×10^3 pfu, polyanion intranasally on one and three days post-infection
[7] = tested on: VACV (most likely IMV form); details: DS per se at 80 μg/ml; cited from earlier work
EEV [8] = format: cell-based, Vaccinia virus
VACV strain WR [9] = format: cell-based, Vaccinia virus strain WR
EEV membrane = tested on: EEV membrane; parameters: species or system Vaccinia virus strain WR
CEV outer membrane = format: cell-based, Vaccinia virus strain WR
VACV strain WR [10] = tested on: VACV strain WR; parameters: species or system mice; details: mouse, in vivo

## dextran sulphate [DS-HMW]
EEV [1]
  relative effectiveness at rendering EEV sensitive to anti-IMV antibody: more potent than HP and DS; also recorded: more effective than DS with lower molecular weight
[2]; 2 mg/mouse intranasally, after 2 days
  body weight reduction: 15%
[2]
  adverse effects after intraperitoneal injection: did not affect the mice adversely
[2]; listed as high MW DS
  weight loss or illness after intranasal administration: increased respiratory effort, followed by breathing difficulty

## dextran sulphate [DS]
[3]
  infectivity of virus in the supernatant of VACV-infected cells: did not reduce the infectivity
  neutralizing activity of both antisera: 56-63%
EEV [1]
  virus infectivity in the supernatant: abolished virus infectivity
[4]
  actin tails formed in cells that made actin tails: significantly fewer actin tails were formed
  cells found to make actin tails: 15%
VACV strain WR [5]
  protection with polyanion in mice passively immunised with rabbit anti-IMV IgG: potentiated the therapeutic effect of this Ab
  benefit with polyanion in mice that received human IgG: less effective
  weight loss after infection, polyanion alone: slightly less weight loss
VACV strain WR [6]
  benefit in vivo at lower virus challenge: confirmed
[7]
  inhibition of VACV: only partially inhibit VACV
[2]
  weight loss or illness after intranasal administration: did not cause weight loss or illness

## heparin [HP-HWM]
EEV [1]
  relative effectiveness at rendering EEV sensitive to anti-IMV antibody: more potent than HP and DS; also recorded: more effective than heparin with lower molecular weight

## heparin [HP]
[3]
  infectivity of virus in the supernatant of VACV-infected cells: did not reduce the infectivity
  neutralizing activity of both antisera: 55-61%
EEV [1]
  relative effectiveness at rendering EEV sensitive to anti-IMV antibody: more effective at the dose tested than desulphated HP
  virus infectivity in the supernatant: abolished virus infectivity
EEV [8]
  binding of virus: neither binding nor entry of virus was affected significantly
  entry of virus (intracellular cores): neither binding nor entry of virus was affected significantly
VACV strain WR [9]
  titre of virus released into the culture medium: no significant difference
  titre of virus that remained cell-associated: no significant difference
[4]
  actin tails formed in cells that made actin tails: significantly fewer actin tails were formed
  cells found to make actin tails: 15%
EEV membrane
  surface of virions associated with EEV membrane: 46.4%
CEV outer membrane
  actin tails seen by EM: actin tails were rarely seen
  outer membrane of CEV bound to the cell surface: disrupted the outer membrane of CEV
VACV strain WR [5]
  protection with polyanion in mice passively immunised with rabbit anti-IMV IgG: provided protection to a level equivalent to rabbit IgG generated against live infection
  benefit with polyanion in mice that received human IgG: provided similar benefit
  weight loss after infection, polyanion alone: slightly less weight loss
VACV strain WR [10]
  reduction of level of virus in lungs: about 10 fold
  reduction of levels of virus in the brain: > 100 fold
  virus titres, HP in absence of anti-VACV Ab: titres were lower than in the absence of HP
VACV strain WR [6]
  benefit in vivo at lower virus challenge: confirmed
[2]
  adverse effects after intraperitoneal injection: did not affect the mice adversely
  weight loss or illness after intranasal administration: did not cause weight loss or illness
